Assay results: PubChem BioAssay (NCI)
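Step 1: Grow cells in 96-well plates. Step 2: Expose to compound for 48 hours at 5 concentrations. Step 3: Interpolate endpoints linearly; if unreached, use highest concentration. GI50 is the concentration that inhibits growth by half. Definition used: TGI = concentration required for complete inhibition of growth.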

Key:
Assay in all cases: inhibition of tumour cell growth, NCI panel, 48 h
UACC-62 melanoma = test system: UACC-62 melanoma
NCI-H522 lung = test system: NCI-H522 lung
KM12 colon = test system: KM12 colon
MOLT-4 leukemia = test system: MOLT-4 leukemia
BT-549 breast = test system: BT-549 breast
SW-620 colon = test system: SW-620 colon
IGROV1 ovarian = test system: IGROV1 ovarian
PC-3 prostate = test system: PC-3 prostate
TK-10 renal = test system: TK-10 renal
UO-31 renal = test system: UO-31 renal

| Compound | TGI (UACC-62 melanoma) | TGI (NCI-H522 lung) | TGI (KM12 colon) | TGI (MOLT-4 leukemia) | TGI (BT-549 breast) | TGI (SW-620 colon) | TGI (IGROV1 ovarian) | TGI (PC-3 prostate) | TGI (TK-10 renal) | TGI (UO-31 renal) | GI50 (UACC-62 melanoma) | GI50 (NCI-H522 lung) | GI50 (KM12 colon) | GI50 (MOLT-4 leukemia) | GI50 (BT-549 breast) | GI50 (SW-620 colon) | GI50 (UO-31 renal) | GI50 (IGROV1 ovarian) | GI50 (PC-3 prostate) | GI50 (TK-10 renal) |
| --- | --- | --- | --- | --- | --- | --- | --- | --- | --- | --- | --- | --- | --- | --- | --- | --- | --- | --- | --- | --- |
| CC(CSc1nc2c(c(=N)n1-c1ccccc1)c(=S)n(-c1ccccc1)c(=S)n2-c1ccccc1)CN(C)C (centres undefined) | 3.15 µM | 2.83 µM | 5.6 µM | 3.02 µM | 3.52 µM | 8.1 µM | 2.79 µM | 3.38 µM | 3.07 µM |  |  |  |  |  |  |  |  |  |  |  |
| COc1cc(/C=C2\C(=O)N(c3ccc(Cl)cc3)C(c3ccccc3)S2(=O)=O)cc(OC)c1OC (centres undefined) | > 63.6 µM | 60.5 µM | 99.3 µM | > 100 µM | > 100 µM | > 100 µM |  | > 100 µM | > 100 µM | > 100 µM |  |  |  |  |  |  |  |  |  |  |
| COc1ccc(C2CC(c3cccc(Nc4ccncc4)c3)=NN2c2ccccc2)cc1 (centres undefined) | 3.21 µM | 3.81 µM | 3.5 µM | 4.63 µM | 20.6 µM | 3.43 µM | 3.51 µM | 3.38 µM | 4.43 µM | 2.92 µM | 1.74 µM | 1.81 µM | 1.79 µM | 2.07 µM | 4.94 µM | 1.81 µM | 1.41 µM | 1.81 µM | 1.68 µM | 2.12 µM |
| O=C(CN1CCCC1)Nc1ccc2c(c1)C1Oc3ccccc3CC1CO2 (centres undefined) | 33 µM | 96.5 µM | > 100 µM | > 100 µM | 75.4 µM | 35.6 µM | > 100 µM | 68.3 µM | > 100 µM | 84.4 µM |  |  |  |  |  |  |  |  |  |  |
| COc1cc2c(cc1OCCN1CCN(CCOc3cc4c(cc3OC)C(=O)N3CCC[C@H]3C=N4)CC1)N=C[C@@H]1CCCN1C2=O | 40 µM | > 82.1 µM | > 75.3 µM | 6.78 µM | > 79.1 µM | > 100 µM | > 78.3 µM | > 93.9 µM | 87.8 µM | > 73.7 µM |  |  |  |  |  |  |  |  |  |  |
| CC(=O)CCN1CC2CN=NC2(C#N)C1 (centres undefined) | > 100 µM | > 20.9 µM | > 100 µM | > 56.7 µM | > 100 µM | > 55.6 µM | > 100 µM | > 100 µM | > 100 µM | > 100 µM |  |  |  |  |  |  |  |  |  |  |
| COc1cc2c(cc1OC)C(C1CC1)ON(C)CC2 (centres undefined) | > 100 µM | > 100 µM | > 100 µM | > 100 µM | > 100 µM | > 100 µM | > 100 µM | > 100 µM | > 100 µM | > 100 µM |  |  |  |  |  |  |  |  |  |  |
| Nc1ncnc2c1ncn2CCCNO | > 100 µM | > 100 µM | > 100 µM | > 100 µM | > 100 µM | > 100 µM | > 100 µM | > 100 µM | > 100 µM | > 100 µM |  |  |  |  |  |  |  |  |  |  |
| Nc1ccc2c3c1cccc3c(=O)n1c3ccc(Cc4ccc5c(c4)nc4c6ccc(N)c7cccc(c(=O)n54)c76)cc3nc21 | > 100 µM | > 100 µM | > 100 µM | > 100 µM | > 100 µM | > 100 µM | > 100 µM | > 100 µM |  | > 100 µM |  |  |  |  |  |  |  |  |  |  |
| C=C(C)C1CCC2(C)C1CCC1(C)C2CCC2C3(C)C4OC(OC4=O)C(C)(C)C3CCC21C (centres undefined) | > 100 µM | 53.6 µM | > 100 µM | > 100 µM | > 100 µM | > 100 µM | > 100 µM | > 100 µM | > 100 µM | > 100 µM |  |  |  |  |  |  |  |  |  |  |
| C[C@]12CC[C@H]3[C@@H](CCC4=C/C(=N/OCCN5CCCCC5)CC[C@@]43C)[C@@H]1CC[C@@H]2O |  | 36.1 µM | 21.8 µM | 20.9 µM | 36 µM | 32.7 µM | > 100 µM | 45.6 µM | 35 µM | 24.7 µM |  |  |  |  |  |  |  |  |  |  |
| CN(C)c1ccc(/C=C2\N=C(c3ccccc3)N(c3nc4ccc(Sc5ccccc5)cc4[nH]3)C2=O)cc1 | 82.4 µM | > 100 µM | > 100 µM | > 100 µM | > 100 µM | > 100 µM | > 100 µM | > 100 µM | 81.3 µM | > 100 µM |  |  |  |  |  |  |  |  |  |  |
| N=C(N)c1ccc(N=Nc2c(O)c(C(=O)Nc3ccccc3)cc3ccccc23)cc1 | > 100 µM | 34.5 µM | 29.9 µM | 8.33 µM | > 100 µM | > 100 µM | > 74.6 µM | > 89.2 µM | > 68 µM | > 100 µM |  |  |  |  |  |  |  |  |  |  |
| COC(=O)c1sc2c(Cl)c(Cl)sc2c1Cl | > 100 µM | > 100 µM | > 100 µM | > 100 µM | > 100 µM | > 100 µM | > 100 µM | > 100 µM | 82 µM | > 100 µM |  |  |  |  |  |  |  |  |  |  |
| COc1ccccc1-c1cc(=O)c2cccnc2[nH]1 | > 100 µM | > 100 µM | > 100 µM | > 100 µM | > 100 µM | > 100 µM | > 100 µM | > 100 µM | > 100 µM | > 100 µM |  |  |  |  |  |  |  |  |  |  |
| Cc1cc(S(=O)(=O)NC2=NCc3c(F)cccc3N2)c(S)cc1Cl | > 100 µM | > 100 µM | > 100 µM | > 100 µM | > 100 µM | > 100 µM | > 100 µM | > 100 µM | > 100 µM | > 100 µM |  |  |  |  |  |  |  |  |  |  |
| Oc1ccccc1/C=N/c1nc(-c2ccccc2)cs1 | > 100 µM | 62.6 µM | > 100 µM | 74.7 µM | > 100 µM | 40 µM | > 100 µM | > 100 µM | > 100 µM | > 100 µM | 34.5 µM | 25.4 µM | 51 µM | 25.4 µM | 59.5 µM | 14 µM | 44.7 µM | > 100 µM | 53.7 µM | 33 µM |
| CC(C)(C)c1cc(C(C)(C)C)c2sc(=O)oc2c1O |  | 26.7 µM | 27.9 µM | > 100 µM | 32.9 µM |  | 27.7 µM | 28 µM | 24.1 µM | 23.8 µM |  |  |  |  |  |  |  |  |  |  |
| CC(C)(C)C(=O)C(N)C(=O)C(C)(C)C | > 100 µM | > 100 µM | > 100 µM | > 100 µM | > 100 µM | > 100 µM |  | > 100 µM | > 100 µM | > 100 µM |  |  |  |  |  |  |  |  |  |  |
| CCOc1ccc(Nc2nc(N)nc(N)c2N=O)cc1 | > 100 µM | > 100 µM | > 100 µM | 76.6 µM | > 100 µM | > 100 µM | 33.4 µM | > 100 µM | > 100 µM | 83.3 µM |  |  |  |  |  |  |  |  |  |  |
| CC1CC(C)(C)CC(OCCN2CCCCC2)(c2ccccc2)C1 (centres undefined) | 29.6 µM | 21.6 µM | 21.4 µM |  | 27.8 µM | 32.5 µM | 27.3 µM | 25.6 µM | 26.7 µM | 20.6 µM |  |  |  |  |  |  |  |  |  |  |
| CCOC(=O)c1c(-c2ccc(Cl)cc2)c(C#N)c(=S)n(C2OC(COC(C)=O)C(OC(C)=O)C(OC(C)=O)C2OC(C)=O)c1C (centres undefined) | > 100 µM | > 100 µM | > 100 µM | > 100 µM | > 100 µM | > 100 µM | > 100 µM | > 100 µM | > 100 µM |  |  |  |  |  | > 100 µM |  |  |  |  |  |
| N#Cc1cc2c(n(C3OC(CO)C(O)C(O)C3O)c1=S)CCC2 (centres undefined) | > 100 µM | > 100 µM | > 100 µM | > 100 µM | > 100 µM |  | > 100 µM | > 100 µM | > 100 µM | > 100 µM |  |  |  |  |  |  |  |  |  |  |
| O=C(CCCCCCCCC(=O)N1C(=O)CC(=O)N(c2ccc(Cl)cc2)C1=S)N1C(=O)CC(=O)N(c2ccc(Cl)cc2)C1=S | > 100 µM | > 100 µM | > 100 µM | 75.6 µM | > 100 µM | > 100 µM |  | > 100 µM | > 100 µM | > 100 µM |  |  |  |  |  |  |  |  |  |  |
| CN1CCN(Cc2ccc(C(=S)Nc3ccccc3)s2)CC1 | 41.3 µM | > 100 µM | > 100 µM | > 100 µM | 76.3 µM | > 100 µM | 75.8 µM | > 100 µM |  | > 100 µM |  |  |  |  |  |  |  |  |  |  |
| CC1CC[C@@]2(OC1)OC1C[C@H]3[C@@H]4CC=C5C[C@@H](OC6OC(CO)C(OC7OC(CO)C(O)C(O)C7O)C(O)C6OC6OC(C)C(O)C(O)C6O)CC[C@]5(C)[C@H]4CC[C@]3(C)C1[C@@H]2C (some centres undefined) | 0.876 µM | 2.93 µM | 1.22 µM |  | 0.848 µM | 1.51 µM | 1.02 µM | 0.93 µM | 3.73 µM | 0.887 µM |  |  |  |  |  |  |  |  |  |  |
| Cc1c(-c2ccccc2)oc(=O)c2ccccc12 | 33 µM | 33.2 µM | 51.9 µM | 60.1 µM | 39.2 µM |  | 46.6 µM | 72.1 µM | 60.7 µM | 43.7 µM |  |  |  |  |  |  |  |  |  |  |
| c1csc(-c2cc(-c3ccsc3)cs2)c1 | > 100 µM |  | > 100 µM | > 100 µM | > 100 µM | > 100 µM | > 100 µM | > 100 µM | > 100 µM | > 100 µM |  |  |  |  |  |  |  |  |  |  |
| O=C(Nc1nnc(-c2ccccc2)o1)C(SC(=S)N1CCCC1)c1ccccc1 (centres undefined) |  | 77.8 µM | > 100 µM | > 100 µM | 90 µM | > 100 µM | > 100 µM | > 100 µM | > 100 µM | 57.8 µM |  |  |  |  |  |  |  |  |  |  |
| COC1=C(OC)C(=O)C(Cc2c(-c3ccccc3)nc3sc(Cl)cn23)=C(C)C1=O | 24.6 µM | 30.8 µM | 41 µM |  | 30.2 µM | 50.6 µM | 29.9 µM | 33.3 µM | 45 µM | 30.5 µM |  |  |  |  |  |  |  |  |  |  |
